In US9676760B2, “Fused heterocyclic compounds as ion channel modulators” (Gilead Sciences, Inc., priority 2011, dated 2017) one finds inhibition data, which are given here for 20 compounds.

The target in experiment [1] is T1, wild-type human cardiac sodium channel, hNav1.5 (Homo sapiens, UniProt Q14524). As to the kind of experiment: Late INa screening assay (QPatch whole cell patch clamp, HEK293). It is filed as cell-based. The note with it: HEK293, percent block of late INa; compound at 1 μM; 10 μM Tefluthrin; read-out: Late INa 1 μM. The method in brief:
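HEK293 stably expressing hNav1.5 without beta subunits, recorded at 23-25° C. Late current was induced by 10 μM tefluthrin. Cells were depolarized from −120 mV to −20 mV for 250 ms at 0.1 Hz. Compounds were tested at 1 μM in extracellular solution, with baseline taken in 0Na-ECF; output is percent block of late INa.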
A general note: The patch-clamp technique gives a direct electrical read-out from membranes.

For experiment [2], the target named is T1, wild-type human cardiac sodium channel, hNav1.5. As to the kind of experiment: Peak INa screening assay (tonic and use-dependent block). It counts as cell-based. The note with it: compound at 1 μM. As to the method:
The late sodium current (Late INa) and peak sodium current (Peak INa) assays are performed on an automated electrophysiology platform, QPatch 16× (Sophion Bioscience, Copenhagen, Denmark), which uses the whole cell patch clamp technique to measure currents through the cell membrane of up to 16 cells at a time. The assay uses an HEK293 (human embryonic kidney) cell line heterologously expressing the wild-type human cardiac sodium channel, hNav1.5, purchased from Millipore (Billerica, Mass.). No beta subunits were coexpressed with the Na channel alpha subunit. Cells are maintained with standard tissue culture procedures and stable channel expression is maintained with 400 μg/mL Geneticin in the culture medium. Cells isolated for use on QPatch are incubated for 5 minutes in Detachin 1×(Genlantis, San Diego, USA) at 37° C. to ensure that 80-90% of the cells are single and not part of a cell cluster. Experiments are carried out at 23-25° C.
For both the Late INa and Peak INa assays, series resistance compensation is set to 100% and series resistance and whole-cell compensation are performed automatically. Currents are digitized at 25 kHz and low-pass filtered at 12 kHz and 10 kHz for the late and peak INa assays, respectively. Currents through open sodium channels are automatically recorded and stored in the Sophion Bioscience Oracle database (Sophion Bioscience, Copenhagen, Denmark). Analysis is performed using QPatch Assay and database software and data are compiled in Excel.
Compound stocks are routinely made by the Gilead Sample Bank in plastic vials to 10 mM in dimethyl sulfoxide (DMSO). In some cases, when compounds are not soluble in DMSO, they are made in 100% ethanol. Stocks are sonicated as necessary. The extracellular solution for screening Late INa is composed of: 140 mM NaCl, 4 mM KCl, 1.8 mM CaCl2, 0.75 mM MgCl2 and 5 mM HEPES with pH adjusted to 7.4 using NaOH. The intracellular solution used to perfuse the inside of the cells for both the Late INa and Peak INa assays contains: 120 mM CsF, 20 mM CsCl, 5 mM EGTA, 5 mM HEPES and pH adjusted to 7.4 with CsOH. Compounds are diluted in extracellular solution to 1 μM in glass vials and then transferred to glass well plates before robotic addition to the cells. The 0 mM Na extracellular solution (0Na-ECF) used at the end of each experiment for the Late INa and Peak INa assays to measure baseline current contains: 140 mM N-methyl-D-glucamine; 4 mM KCl; 1.8 mM CaCl2; 0.75 mM MgCl2; 5 mM HEPES and pH was adjusted to 7.4 with HCl.
Compounds were also evaluated for their effect in several other assays, including their effect on Peak INa. […] Since the peak INa in the cells used herein can be very large, introducing artifacts in the recording, the concentration of Na^+ in the bath can be reduced to 20 mM and a nonpermeant cation added to compensate for the Na^+ that was removed to maintain the osmolarity and ionic strength of the solution (see solution details below).
A low stimulation frequency of 0.1 Hz was used to determine the effect of the test compound when the channel spent most of the time in the resting (closed) state and provides information about Tonic Block (TB). A higher stimulation frequency (3 Hz) was used to measure block of the channel when it spent more time in the activated and inactivated states and provided a measure of Use-Dependent Block (UDB). Use-dependent block refers to the accumulation of block with increased frequency of channel activation.

Setting [3] is: tonic block of peak INa, 0.1 Hz, read-out: Peak TB 1 μM.
The mark [4] stands for this setting: use-dependent block of peak INa, 3 Hz, read-out: Peak UDB 1 μM.

Structures are written as SMILES.

T1 sequence (Q14524 whole entry): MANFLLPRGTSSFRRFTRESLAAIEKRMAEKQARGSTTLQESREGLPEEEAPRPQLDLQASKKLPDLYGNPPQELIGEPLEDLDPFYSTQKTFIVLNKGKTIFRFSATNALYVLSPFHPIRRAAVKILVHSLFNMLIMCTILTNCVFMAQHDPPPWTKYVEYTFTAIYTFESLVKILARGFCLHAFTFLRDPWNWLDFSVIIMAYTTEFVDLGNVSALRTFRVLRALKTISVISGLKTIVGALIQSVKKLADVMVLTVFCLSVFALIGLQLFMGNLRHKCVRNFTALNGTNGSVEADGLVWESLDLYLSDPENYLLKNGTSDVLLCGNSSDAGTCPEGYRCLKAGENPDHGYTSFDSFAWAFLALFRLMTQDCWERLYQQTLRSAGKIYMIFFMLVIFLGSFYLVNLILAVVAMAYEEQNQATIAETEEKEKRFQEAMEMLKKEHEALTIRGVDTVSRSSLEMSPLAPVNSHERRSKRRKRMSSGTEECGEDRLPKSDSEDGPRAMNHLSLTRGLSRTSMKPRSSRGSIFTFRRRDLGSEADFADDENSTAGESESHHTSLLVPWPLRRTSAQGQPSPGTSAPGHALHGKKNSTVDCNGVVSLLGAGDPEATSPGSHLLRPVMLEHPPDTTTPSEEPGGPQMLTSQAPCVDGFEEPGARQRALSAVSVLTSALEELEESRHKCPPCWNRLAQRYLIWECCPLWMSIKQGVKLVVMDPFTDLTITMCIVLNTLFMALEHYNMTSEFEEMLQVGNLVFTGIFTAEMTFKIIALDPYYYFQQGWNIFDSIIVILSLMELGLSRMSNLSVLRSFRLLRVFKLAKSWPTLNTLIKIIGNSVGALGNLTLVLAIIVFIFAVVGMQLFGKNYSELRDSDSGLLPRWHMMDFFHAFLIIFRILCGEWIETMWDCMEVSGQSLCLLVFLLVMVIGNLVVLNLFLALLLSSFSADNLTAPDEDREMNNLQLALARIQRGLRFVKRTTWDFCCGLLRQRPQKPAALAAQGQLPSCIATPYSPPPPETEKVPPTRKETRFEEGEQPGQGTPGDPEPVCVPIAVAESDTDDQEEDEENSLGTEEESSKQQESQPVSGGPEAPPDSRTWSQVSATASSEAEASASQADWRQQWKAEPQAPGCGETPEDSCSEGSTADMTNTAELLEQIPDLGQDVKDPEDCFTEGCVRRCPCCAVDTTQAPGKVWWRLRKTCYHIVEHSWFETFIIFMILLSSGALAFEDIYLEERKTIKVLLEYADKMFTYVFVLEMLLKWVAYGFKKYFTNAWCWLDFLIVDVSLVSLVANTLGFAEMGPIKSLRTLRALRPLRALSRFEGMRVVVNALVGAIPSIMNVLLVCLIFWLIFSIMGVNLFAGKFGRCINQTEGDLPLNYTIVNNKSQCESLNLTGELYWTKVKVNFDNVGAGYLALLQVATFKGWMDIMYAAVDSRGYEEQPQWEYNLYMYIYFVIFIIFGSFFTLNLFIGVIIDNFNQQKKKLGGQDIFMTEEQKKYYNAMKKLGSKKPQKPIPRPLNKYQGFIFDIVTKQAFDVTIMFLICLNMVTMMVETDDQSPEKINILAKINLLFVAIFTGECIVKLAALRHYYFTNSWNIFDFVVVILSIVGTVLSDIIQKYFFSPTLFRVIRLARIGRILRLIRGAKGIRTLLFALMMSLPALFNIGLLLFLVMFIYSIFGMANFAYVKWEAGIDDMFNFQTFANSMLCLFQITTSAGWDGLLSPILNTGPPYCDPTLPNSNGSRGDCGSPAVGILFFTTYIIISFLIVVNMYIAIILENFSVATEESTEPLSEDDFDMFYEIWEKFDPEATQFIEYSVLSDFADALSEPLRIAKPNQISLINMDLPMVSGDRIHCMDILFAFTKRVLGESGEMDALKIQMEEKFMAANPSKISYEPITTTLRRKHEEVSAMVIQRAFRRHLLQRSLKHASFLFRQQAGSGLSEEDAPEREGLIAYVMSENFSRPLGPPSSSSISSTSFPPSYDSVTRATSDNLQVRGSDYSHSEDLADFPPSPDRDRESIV

In the case of `CN1C(=O)CN(Cc2ccccc2)C(=O)c2cc(-c3ccc(C(F)(F)F)cc3)ccc21` [Compound X-11, 4-benzyl-1-methyl-7-(4-(trifluoromethyl)phenyl)-3,4-dihydro-1H-benzo[e][1,4]diazepine-2,5-dione], the inhibition at 1 µM came to 48% in experiment [1], 17% in experiment [2] (setting [3]) and 20% in experiment [2] (setting [4]).

Turning to `O=C1c2cc(-c3ccc(OC(F)(F)F)cc3)ccc2OCCN1Cc1cccc(C(F)(F)F)n1` [II-15, 7-(4-(trifluoromethoxy)phenyl)-4-((6-(trifluoromethyl)pyridin-2-yl)methyl)-3,4-dihydrobenzo[f][1,4]oxazepin-5(2H)-one], the results for the inhibition at 1 µM in experiment [1], in experiment [2] (setting [3]) and in experiment [2] (setting [4]) were 48%, 8% and 8%, respectively.

In the case of `O=C1c2cc(-c3ccc(OC(F)(F)F)cc3)ccc2OCCN1Cc1cnccn1` [II-31, 4-(pyrazin-2-ylmethyl)-7-(4-(trifluoromethoxy)phenyl)-3,4-dihydrobenzo[f][1,4]oxazepin-5(2H)-one], the values for the inhibition at 1 µM in experiment [1], in experiment [2] (setting [3]) and in experiment [2] (setting [4]) were 51%, 9% and 8%, respectively.

For the compound `Cc1cnc(CN2CCOc3ccc(-c4ccc(OC(F)(F)F)cc4)cc3C2=O)o1` [II-33, 4-((5-methyloxazol-2-yl)methyl)-7-(4-(trifluoromethoxy)phenyl)-3,4-dihydrobenzo[f][1,4]oxazepin-5(2H)-one], the inhibition at 1 µM in experiment [1] was 46%; in experiment [2] (setting [3]), 10%; in experiment [2] (setting [4]), 13%.

Regarding `O=C1c2cc(-c3ccc(OC(F)(F)F)cc3)ccc2OCCN1Cc1ccccc1Cl` [II-47, 4-(2-chlorobenzyl)-7-(4-(trifluoromethoxy)phenyl)-3,4-dihydrobenzo[f][1,4]oxazepin-5(2H)-one], the inhibition at 1 µM in experiment [1] stood at 60%; in experiment [2] (setting [3]), 13%; in experiment [2] (setting [4]) it was 45%.

As for `O=C1c2cc(-c3ccc(OC(F)(F)F)cc3)ccc2OCCN1Cc1c(Cl)cccc1Cl` [II-48, 4-(2,6-dichlorobenzyl)-7-(4-(trifluoromethoxy)phenyl)-3,4-dihydrobenzo[f][1,4]oxazepin-5(2H)-one], the inhibition at 1 µM in experiment [1] was found to be 47%; in experiment [2] (setting [3]) it was 13%; in experiment [2] (setting [4]) it was 53%.

`O=C1c2cc(-c3ccc(OC(F)(F)F)cc3)ccc2OCCN1Cc1c(F)cccc1F` [II-49, 4-(2,6-difluorobenzyl)-7-(4-(trifluoromethoxy)phenyl)-3,4-dihydrobenzo[f][1,4]oxazepin-5(2H)-one]: the inhibition at 1 µM in experiment [1] was 63%; in experiment [2] (setting [3]), 28%; in experiment [2] (setting [4]) it was 44%.

Consider `O=C1c2cc(-c3ccc(OC(F)(F)F)cc3)ccc2OCCN1CCn1cccn1` [II-50, 4-(2-(1H-pyrazol-1-yl)ethyl)-7-(4-(trifluoromethoxy)phenyl)-3,4-dihydrobenzo[f][1,4]oxazepin-5(2H)-one], for which the inhibition at 1 µM is 48% in experiment [1], 5% in experiment [2] (setting [3]) and 19% in experiment [2] (setting [4]).

For the compound `O=C1c2cc(-c3ccc(OC(F)(F)F)cc3)ccc2OCCN1CCc1ccccn1` [II-54, 4-(2-(pyridin-2-yl)ethyl)-7-(4-(trifluoromethoxy)phenyl)-3,4-dihydrobenzo[f][1,4]oxazepin-5(2H)-one], the inhibition at 1 µM came to 51% in experiment [1], 13% in experiment [2] (setting [3]) and 20% in experiment [2] (setting [4]).

In the case of `O=C1c2cc(-c3ccc(OC(F)(F)F)cc3)ccc2OCCN1Cc1ccccc1F` [II-57, 4-(2-fluorobenzyl)-7-(4-(trifluoromethoxy)phenyl)-3,4-dihydrobenzo[f][1,4]oxazepin-5(2H)-one], the inhibition at 1 µM in experiment [1] is 55%; in experiment [2] (setting [3]), 50%; in experiment [2] (setting [4]), 41%.

As to `O=C1c2cc(-c3ccc(OC(F)(F)F)cc3)ccc2OCCN1Cc1ccc(F)cc1` [II-62, 4-(4-fluorobenzyl)-7-(4-(trifluoromethoxy)phenyl)-3,4-dihydrobenzo[f][1,4]oxazepin-5(2H)-one], the inhibition at 1 µM in experiment [1] was found to be 49%; in experiment [2] (setting [3]), 10%; in experiment [2] (setting [4]), 14%.

Turning to `Cn1ccc(CN2CCOc3ccc(-c4ccc(OC(F)(F)F)cc4)cc3C2=O)n1` [II-64, 4-((1-methyl-1H-pyrazol-3-yl)methyl)-7-(4-(trifluoromethoxy)phenyl)-3,4-dihydrobenzo[f][1,4]oxazepin-5(2H)-one], the results for the inhibition at 1 µM in experiment [1], in experiment [2] (setting [3]) and in experiment [2] (setting [4]) were 55%, 12% and 19%, respectively.

Consider `O=C1c2cc(-c3ccc(OC(F)(F)F)cc3)ccc2OCCN1Cc1ccccn1` [II-72, 4-(pyridin-2-ylmethyl)-7-(4-(trifluoromethoxy)phenyl)-3,4-dihydrobenzo[f][1,4]oxazepin-5(2H)-one], for which the results for the inhibition at 1 µM in experiment [1], in experiment [2] (setting [3]) and in experiment [2] (setting [4]) were 60%, 22% and 34%, respectively.

For the compound `O=C1c2cc(-c3ccc(OC(F)(F)F)cc3)ccc2OCCN1Cc1ccccc1` [II-134, 4-benzyl-7-(4-(trifluoromethoxy)phenyl)-3,4-dihydrobenzo[f][1,4]oxazepin-5(2H)-one], the values for the inhibition at 1 µM in experiment [1], in experiment [2] (setting [3]) and in experiment [2] (setting [4]) were 69%, 38% and 34%, respectively.

As for `COc1ccnc(CN2CCOc3ccc(-c4ccc(OC(F)(F)F)cc4)cc3C2=O)n1` [II-137, 4-((4-methoxypyrimidin-2-yl)methyl)-7-(4-(trifluoromethoxy)phenyl)-3,4-dihydrobenzo[f][1,4]oxazepin-5(2H)-one], the figures for the inhibition at 1 µM in experiment [1], in experiment [2] (setting [3]) and in experiment [2] (setting [4]) were 54%, 28% and 26%, respectively.

Turning to `O=C1c2cc(-c3ccc(C(F)(F)F)cc3)ccc2OCCN1Cc1ccccc1` [II-141, 4-benzyl-7-(4-(trifluoromethyl)phenyl)-3,4-dihydrobenzo[f][1,4]oxazepin-5(2H)-one], the inhibition at 1 µM came to 73% in experiment [1], 40% in experiment [2] (setting [3]) and 40% in experiment [2] (setting [4]).

Consider `O=C1c2cc(-c3ccc(OCC4CCC4)cc3)ccc2OCCN1Cc1ncccn1` [II-144, 7-(4-(cyclobutylmethoxy)phenyl)-4-(pyrimidin-2-ylmethyl)-3,4-dihydrobenzo[f][1,4]oxazepin-5(2H)-one], for which the inhibition at 1 µM was 68% in experiment [1], 34% in experiment [2] (setting [3]) and 41% in experiment [2] (setting [4]).

In the case of `O=C1c2cc(-c3ccc(OC(F)(F)F)cc3)ccc2OCCN1Cc1ccn(C(F)F)n1` [II-147, 4-((1-(difluoromethyl)-1H-pyrazol-3-yl)methyl)-7-(4-(trifluoromethoxy)phenyl)-3,4-dihydrobenzo[f][1,4]oxazepin-5(2H)-one], the inhibition at 1 µM in experiment [1] was 54%; in experiment [2] (setting [3]), 13%; in experiment [2] (setting [4]), 6%.

For the compound `O=C1c2cc(-c3ccc(CC(F)(F)F)cc3)ccc2OCCN1Cc1ccccn1` [II-151, 4-(pyridin-2-ylmethyl)-7-(4-(2,2,2-trifluoroethyl)phenyl)-3,4-dihydrobenzo[f][1,4]oxazepin-5(2H)-one], the inhibition at 1 µM turned out to be 51% in experiment [1], 13% in experiment [2] (setting [3]) and 14% in experiment [2] (setting [4]).

Consider `CCn1ccc(CN2CCOc3ccc(-c4ccc(OC(F)(F)F)cc4)cc3C2=O)n1` [II-153, 4-((1-ethyl-1H-pyrazol-3-yl)methyl)-7-(4-(trifluoromethoxy)phenyl)-3,4-dihydrobenzo[f][1,4]oxazepin-5(2H)-one], for which the results for the inhibition at 1 µM in experiment [1], in experiment [2] (setting [3]) and in experiment [2] (setting [4]) were 56%, 15% and 13%, respectively.
